Source: the supplement of paper PMC10307832

Tests used:
Assay in all cases: relative viability (nuclei count vs DMSO), 5 days (fraction); higher = more cells survive
YM155 + Dasatinib = compound: COCC[n+]1c2c(n(Cc3cnccn3)c1C)C(=O)c1ccccc1C2=O [YM155] + Cc1nc(Nc2ncc(C(=O)Nc3c(C)cccc3Cl)s2)cc(N2CCN(CCO)CC2)n1 [Dasatinib] (partner 0.075 µM)
How it was run: (§1)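 Lung cancer cell lines in 1536-well plates got either a single drug or a fixed anchor-drug dose together with five library-drug doses (not always all listed) in √10 steps, by pin tool, on the day after seeding. Nuclei were counted after 5 days, and relative viability is the treated-to-vehicle ratio of nuclei counts. Values are medians of duplicate plates.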

Quizartinib + Bortezomib = compound: CC(C)(C)c1cc(NC(=O)Nc2ccc(-c3cn4c(n3)sc3cc(OCCN5CCOCC5)ccc34)cc2)no1 [Quizartinib] + CC(C)C[C@H](NC(=O)[C@H](Cc1ccccc1)NC(=O)c1cnccn1)B(O)O [Bortezomib] (partner 0.002 µM)
How it was run: as §1

Quizartinib + Linsitinib = compound: CC(C)(C)c1cc(NC(=O)Nc2ccc(-c3cn4c(n3)sc3cc(OCCN5CCOCC5)ccc34)cc2)no1 [Quizartinib] + C[C@]1(O)C[C@@H](c2nc(-c3ccc4ccc(-c5ccccc5)nc4c3)c3c(N)nccn32)C1 [Linsitinib] (partner 1 µM)
How it was run: as §1

YM155 + Palbociclib = compound: COCC[n+]1c2c(n(Cc3cnccn3)c1C)C(=O)c1ccccc1C2=O [YM155] + CC(=O)c1c(C)c2cnc(Nc3ccc(N4CCNCC4)cn3)nc2n(C2CCCC2)c1=O [Palbociclib] (partner 0.5 µM)
How it was run: as §1

Row | Cell Line | relative viability (YM155 + Dasatinib; first compound 0.002 µM) | relative viability (YM155 + Dasatinib; first compound 0.006325 µM) | relative viability (YM155 + Dasatinib; first compound 0.02 µM) | relative viability (YM155 + Dasatinib; first compound 0.06325 µM) | relative viability (Quizartinib + Bortezomib; first compound 0.001 µM) | relative viability (Quizartinib + Bortezomib; first compound 0.003162 µM) | relative viability (Quizartinib + Bortezomib; first compound 0.01 µM) | relative viability (Quizartinib + Bortezomib; first compound 0.03162 µM) | relative viability (Quizartinib + Bortezomib; first compound 0.1 µM) | relative viability (Quizartinib + Linsitinib; first compound 0.001 µM) | relative viability (Quizartinib + Linsitinib; first compound 0.003162 µM) | relative viability (Quizartinib + Linsitinib; first compound 0.01 µM) | relative viability (Quizartinib + Linsitinib; first compound 0.03162 µM) | relative viability (Quizartinib + Linsitinib; first compound 0.1 µM) | relative viability (YM155 + Palbociclib; first compound 0.002 µM) | relative viability (YM155 + Palbociclib; first compound 0.006325 µM) | relative viability (YM155 + Palbociclib; first compound 0.02 µM) | relative viability (YM155 + Palbociclib; first compound 0.06325 µM)
1 | HARA | 0.161 | 0.278 | 0.298 | 0.292 | 0.931 | 1.11 | 1.15 | 1.07 | 1.17 | 0.585 | 0.906 | 0.953 | 0.958 | 0.974 | 0.235 | 0.262 | 0.328 | 0.211
2 | PC-3 [JPC-3] | 0.917 | 1.04 | 1.02 | 1.01 | 0.782 | 0.822 | 0.859 | 0.791 | 0.841 | 0.853 | 0.951 | 0.931 | 0.988 | 0.933 | 0.526 | 0.565 | 0.571 | 0.52
3 | LXF-289 | 0.233 | 0.231 | 0.194 | 0.224 | 0.868 | 0.955 | 0.983 | 0.949 | 1.03 | 0.899 | 0.944 | 1.02 | 0.958 | 0.92 | 0.584 | 0.628 | 0.612 | 0.605
4 | NCI-H2126 | 0.583 | 0.673 | 0.626 | 0.745 | 0.708 | 1.06 | 1.12 | 1.14 | 1.15 | 0.712 | 0.705 | 0.735 | 0.767 | 0.835 | 0.354 | 0.369 | 0.369 | 0.369
5 | NCI-H1755 | 0.449 | 0.4 | 0.467 | 0.453 | 0.858 | 0.979 | 0.956 | 0.973 | 0.969 | 0.611 | 0.997 | 0.963 | 1 | 0.99 | 0.439 | 0.478 | 0.456 | 0.453
6 | HCC-827 | 0.337 | 0.262 | 0.308 | 0.345 | 0.998 | 1.11 | 1.02 | 1.06 | 1.01 | 0.99 | 0.924 | 1.05 | 0.962 | 0.994 | 0.511 | 0.481 | 0.505 | 0.552
7 | NCI-H838 | – | 0.291 | 0.299 | 0.281 | 0.458 | 0.763 | 0.65 | 0.926 | 0.534 | 0.919 | 0.912 | 0.991 | 0.963 | 0.576 | 0.191 | 0.237 | 0.226 | 0.198
8 | NCI-H3122 | 0.548 | 0.641 | 0.857 | 0.932 | 1.01 | 1 | 1.09 | 1.02 | 0.983 | 1.04 | 1.03 | 1.1 | 1.05 | 0.964 | 0.184 | 0.178 | 0.218 | 0.171
9 | HCC-78 | 0.313 | 0.487 | 0.477 | 0.47 | 0.435 | 0.477 | 0.546 | 0.511 | 0.448 | 0.471 | 0.4 | 0.486 | 0.451 | 0.514 | 0.395 | 0.43 | 0.483 | 0.504
